Experiments:
[1] = biological target: T1, hexokinase 2 (HK2) (Homo sapiens, UniProt P52789); test: HK2 activity test on GLMSD platform (graphite dots MALDI-MS); format: biochemical
T1 sequence (P52789 1-917): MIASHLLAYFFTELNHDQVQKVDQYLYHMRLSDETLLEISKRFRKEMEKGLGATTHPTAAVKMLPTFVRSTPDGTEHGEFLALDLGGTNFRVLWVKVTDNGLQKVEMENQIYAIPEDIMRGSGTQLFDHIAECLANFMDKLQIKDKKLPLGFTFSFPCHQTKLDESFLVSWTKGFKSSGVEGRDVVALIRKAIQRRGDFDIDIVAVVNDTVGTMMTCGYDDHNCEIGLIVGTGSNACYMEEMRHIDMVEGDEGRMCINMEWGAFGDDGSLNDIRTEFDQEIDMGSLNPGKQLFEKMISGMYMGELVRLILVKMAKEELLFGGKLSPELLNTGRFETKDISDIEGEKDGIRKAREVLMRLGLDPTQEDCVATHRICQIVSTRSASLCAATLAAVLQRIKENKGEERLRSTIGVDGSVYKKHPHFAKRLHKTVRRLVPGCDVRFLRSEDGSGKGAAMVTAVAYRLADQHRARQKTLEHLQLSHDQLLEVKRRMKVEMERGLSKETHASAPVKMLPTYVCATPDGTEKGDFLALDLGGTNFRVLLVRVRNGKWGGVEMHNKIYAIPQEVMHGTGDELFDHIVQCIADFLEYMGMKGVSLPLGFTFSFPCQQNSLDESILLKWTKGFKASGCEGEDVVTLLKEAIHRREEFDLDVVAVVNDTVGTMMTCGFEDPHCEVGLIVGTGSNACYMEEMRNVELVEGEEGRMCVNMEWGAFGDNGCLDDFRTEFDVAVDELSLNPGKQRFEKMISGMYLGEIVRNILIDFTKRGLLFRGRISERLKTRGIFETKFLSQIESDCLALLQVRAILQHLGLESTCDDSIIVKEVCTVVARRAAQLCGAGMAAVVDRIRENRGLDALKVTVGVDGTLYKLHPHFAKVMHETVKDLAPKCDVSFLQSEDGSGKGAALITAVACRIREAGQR
Protocol: GDs were dispersed in water at a concentration of 1 mg/mL as a matrix solution to be used. A sample was prepared by using a quick-drying method: firstly, 1 μL of matrix solution was dropped onto a target plate, and after natural drying at a room temperature in a […], 1 μL of sample to be analyzed was dropped onto a surface of the dried matrix, and after the sample was naturally dried, mass spectrometry was directly performed:
An instrument in the MALDI-MS was a Bruker Ultraflex III TOF/TOF mass spectrometer, which was mainly in a reflection positive and negative ion mode. Nd of 355 nm for instrument parameter: YAG laser had laser energy of 30% corresponding to 57 μJ per pulse (laser pulse duration: 3 ns), a laser spot size was about 50-100 μm, each sample was repeatedly tested four times, and 3000 laser spots were accumulated in each mass spectrum. All samples were measured under the same instrumental conditions.
an inhibition rate=(1−B/A)×100%, where • A was: a glucose concentration in a pre-reaction solution without the inhibitor-a glucose concentration in a post-reaction solution without the inhibitor, • B was: a glucose concentration in a pre-reaction solution with the inhibitor-a glucose concentration in a post-reaction solution with the inhibitor, and • a glucose concentration in the reaction solution=(mass spectrum signal strength of [glucose+Na]+/mass spectrum signal strength of [glucose-1-^13C+Na]+)×known concentration of glucose-1-^13C.

[2] = system: U87 cell transplantation tumor (brain glioma); test: MSI imaging of drug in brain tissue section (blood-brain barrier penetration); format: in vivo; conditions: MSI of brain tissue section with U87 glioma implant
Source text: FIG. 9 is an MSI image of a drug and a metabolite (compound 27: m/z 499, lactic acid: m/z 113) in a brain tissue section, where an optical micrograph of a serial section of H&E staining is used as a reference. The brain glioma and the lateral ventricle are represented by dashed lines, a color bar encodes signal strength of […] small molecules in […] (MSI), and the resolution is 10 μm.

[3] = system: U87 cells; test: Flow cytometry analysis of U87 cell apoptosis (Annexin V-FITC/PI staining); format: cell-based; conditions: 20 μM, 24 hours
Protocol: In a dulbecco's modified eagle medium (DMEM), 5×10^5 U87 cells were inoculated into a 24-hole plate. After culturing for 24 hours, compound 27 (final concentration 20 μM) was directly added to a cell growth medium, incubated at 37° C. for 24 hours, briefly digested with trypsin, washed twice with cold PBS, centrifuged (2000 rpm, 5 min) and washed twice with cold PBS after a supernatant culture medium was discarded. The cells (1×10^5 cells/mL) were resuspended with a 400 μL of buffer solution (1×). 5 μL of Annexin V-FITC was added to the cell suspension and cultured at 4° C. for 15 minutes. Then, the cells were gently mixed with another dye propidium iodide (PI) (10 μL). The cells were collected for flow cytometry analysis. Data analysis was performed by using a CFLow Plus (Accuri Cytometers).
In order to further confirm the occurrence of apoptosis, the applicant tested the exposed phosphatidylserine by using an annexin V/propidium iodide double staining method, and observed a cell membrane damage phenomenon.

CCOc1ccc(C(=O)NCCCN(C)CCCN(C)Cc2ccccc2)cc1Br [compound 27]
inhibitory effect on the HK2 ([1]; inhibition curves FIGS. 3-7, colorimetric kit and GLMSD): good inhibitory effects
inhibition at 20 µM ([1]; small-molecule concentration of the inhibitor 20 μM, GLMSD, read-out: inhibition rate of HK2 activity): 31%
capacity of penetrating a blood-brain barrier [2]: can break through the blood-brain barrier
early (Annexin+/PI−) apoptotic cells [3]: 31.2%
late (Annexin+/PI+) apoptotic cells [3]: 30.6%

From US20230414571A1, “APPLICATION OF SMALL-MOLECULE COMPOUND IN PREPARATION OF ANTITUMOR DRUG” (SOOCHOW UNIVERSITY, priority 2021, published 2023)
